Measured values published in patent publication US20250090823A1, “MICRONEEDLE PATCH FOR ENHANCING ACCUMULATION OF PROTOPORPHYRIN IX IN SOLID TUMOR AND PREPARATION METHOD THEREFOR” (SHENZHEN UNIVERSITY, priority 2022, published 2025).

Columns and labels:
[1] = tested on: 4T1 breast cancer subcutaneous tumor; experiment: Tumor-volume inhibition after PDT, 4T1 breast cancer subcutaneous tumor model; assay type: in vivo, mouse; settings: 50 mg/kg CCPCA NPs, 3.4 mg/kg 5-ALA, 635 nm laser 10 min at 12, 24, 36 h, 14 days
Source text: A specific characterization method is as follows: 20 4T1 model tumor mice with a tumor size of 100 mm^3 are equally divided into 4 experimental groups, namely the MN (+) group with blank microneedle and irradiated with laser, the 5-ALA i.v (+) group with tail intravenous injected with 5-ALA and irradiated with laser, the MN-5-ALA (+) group with 5-ALA microneedle delivery and irradiated with laser, the MN-CCPCA (+) group with transdermal microneedle loaded with 5-ALA and CAT using nanoparticles and irradiated with lase. The mice in the laser treatment group are irradiated with a laser with a wavelength of 635 nm for 10 minutes (200 mW/cm^2) at 12, 24, and 36 h, respectively. The doses administered are 50 mg/kg of CCPCA NPs and 3.4 mg/kg of 5-ALA. The volume of mouse tumor in each group on different days (0, 2, 4, 6, 8, 10, 12, 14) is measured by a vernier caliper.

A375 tumor cell = experiment: Dynamic PpIX fluorescence in A375 tumor cell by high-content fluorescence microscopy; assay type: cell-based; settings: equal amount of 5-ALA, time after hatching (incubation)
Source text: The dynamic fluorescence value of PpIX generated by an in-vivo cell is monitored in real time by high-content fluorescence microscopy.

A375 melanoma cells = experiment: PpIX accumulation (mass) generated in A375 tumor cell by different nanoparticles; assay type: cell-based; settings: same concentration of 5-ALA (10.8 μg mL^−1)
Source text: The biological effects of MN-CCPCA in accumulating PpIX in a cell and an in-vivo tumor are studied.

[2] = tested on: subcutaneous U87MG glioblastoma; experiment: Tumor-volume inhibition after 3 repeated PDT, subcutaneous U87MG glioblastoma model; assay type: in vivo, mouse; settings: 50 mg/kg CCPCA NPs, 3.4 mg/kg 5-ALA, 635 nm laser 10 min at 6, 12, 24 h, 14 days
Method: A specific characterization method is as follows: 20 U87MG model tumor mice with a tumor size of 100 mm^3 are equally divided into 4 experimental groups, namely the MN (+) group with blank microneedle and irradiated with laser, the 5-ALA i.v (+) group with tail intravenous injected with 5-ALA and irradiated with laser, the MN-5-ALA (+) group with 5-ALA microneedle delivery and irradiated with laser, the MN-CCPCA (+) group with transdermal microneedle loaded with 5-ALA and CAT using nanoparticles and irradiated with lase. The doses administered are 50 mg/kg of CCPCA NPs and 3.4 mg/kg of 5-ALA. The mice in the laser treatment group are irradiated with a laser with a wavelength of 635 nm for 10 minutes (200 mW/cm^2) at 6, 12, and 24 h, respectively. The volume of mouse tumor in each group on different days (0, 2, 4, 6, 8, 10, 12, 14) is measured by a vernier caliper.

[3] = background statement; cited from earlier work

Compound | tumor growth inhibition rate [1] | time at which PpIX concentration/intensity in the cell reaches the maximum (A375 tumor cell) | intracellular PpIX content (A375 melanoma cells) | tumor growth inhibition rate [2] | time of rapid clearance of PpIX in vivo [3] | time to highest peak of PpIX synthesis in vivo [3]
NCC(=O)CCC(=O)O [5-ALA, 5-aminolevulinic acid] | 27.5% | 6 h | 35.1±3.3 ng/10^6 cells | 19.1% | – | –
C=CC1=C(C)c2cc3[nH]c(cc4nc(cc5[nH]c(cc1n2)c(C)c5CCC(=O)O)C(CCC(=O)O)=C4C)c(C)c3C=C [PpIX, Protoporphyrin IX] | – | – | – | – | ≤ 12 h | about 4 hours
